# Strand notation (5' to 3'): a small letter for the sugar, then the base; units joined by * are phosphorothioate-linked, units joined directly phosphodiester-linked; [ ] holds rarer units or linkages, { } end groups; capitals alone tell only the bases. k = constrained ethyl (cEt); [5mC] = 5-methylcytosine; d = 2'-deoxy (DNA)
# System: Yap1 mRNA
# Assay: Antisense inhibition of human Yap1 in A-431 cells by cEt gapmers, single dose (Example 3, RTS36584)
# Format: cell-based
# Conditions: Table 8; A-431 cells, 5,000 cells per well, free uptake, 2,000 nM, approximately 48 hours; RTS36584; normalized to RIBOGREEN; Yap1 mRNA relative to untreated control cells
# How it was run: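 Read-out is Yap1 mRNA as percent of untreated control, by quantitative RT-PCR normalized to total RNA (RiboGreen). Cells (A-431) received 2,000 nM of 3-10-3 cEt phosphorothioate gapmer via free uptake for roughly 48 hours.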
row,Substance,YAP1 (% UTC)
1,958408 (antisense k[5mC]*kT*kA*dT*dA*dT*dA*dT*dG*dG*dT*dA*dG*kT*k[5mC]*kT) [Compound 958408],20
2,958423 (antisense kG*kA*kT*d[5mC]*dA*dA*d[5mC]*dA*dT*dG*d[5mC]*dT*dA*kA*k[5mC]*kA) [Compound 958423],51
3,958404 (antisense kG*k[5mC]*kA*d[5mC]*dA*d[5mC]*dA*dA*d[5mC]*dT*d[5mC]*dA*dG*kA*k[5mC]*kA) [Compound 958404],52
4,958370 (antisense k[5mC]*kT*kT*dT*dA*dT*d[5mC]*dT*dA*dG*d[5mC]*dT*dT*kG*kG*kT) [Compound 958370],7

# Same assay, conditions: Table 9; A-431 cells, 5,000 cells per well, free uptake, 2,000 nM, approximately 48 hours; RTS36584; normalized to RIBOGREEN; Yap1 mRNA relative to untreated control cells
row,Substance,YAP1 (% UTC)
1,958706 (antisense kT*k[5mC]*kG*d[5mC]*dA*dT*dG*dG*d[5mC]*d[5mC]*dA*d[5mC]*dT*kG*k[5mC]*k[5mC]) [Compound 958706],112
2,958516 (k[5mC]*kT*kG*d[5mC]*dA*dG*dA*d[5mC]*dT*dG*d[5mC]*d[5mC]*d[5mC]*k[5mC]*kA*kA; antisense) [Compound 958516],38
3,958541 (kG*kT*kA*dT*dT*d[5mC]*dT*dA*dT*d[5mC]*d[5mC]*dA*dG*kG*kG*kT; antisense) [Compound 958541],4
4,958481 (antisense kG*k[5mC]*kA*dA*d[5mC]*dT*dG*dG*d[5mC]*dT*dT*dA*dT*kG*kG*kA) [Compound 958481],6
5,958756 (antisense kG*kT*kG*dT*dT*dG*d[5mC]*dA*dT*dG*dA*d[5mC]*dA*kG*k[5mC]*k[5mC]) [Compound 958756],15

# Same assay, conditions: Table 10; A-431 cells, 5,000 cells per well, free uptake, 2,000 nM oligonucleotide, approx. 48 hours; primer probe set RTS36584; Yap1 mRNA normalized to RIBOGREEN, percent of untreated control
row,Substance,YAP1 (% UTC)
1,958732 (antisense kA*kG*k[5mC]*dA*d[5mC]*dG*dG*dT*dG*dT*dA*dG*d[5mC]*kT*kT*kT) [Compound 958732],60
2,958742 (antisense kA*kG*k[5mC]*dA*dA*dT*dA*dT*dG*dG*dT*dA*dT*kT*kA*kG) [Compound 958742],4
3,958607 (antisense k[5mC]*kA*kA*d[5mC]*dA*dT*dG*d[5mC]*dT*dT*dG*d[5mC]*dG*kA*kG*kG) [Compound 958607],11
4,958487 (kT*k[5mC]*k[5mC]*dA*dA*dA*d[5mC]*dA*dG*dG*d[5mC]*dT*d[5mC]*kA*k[5mC]*kT; antisense) [Compound 958487],10

# Same assay, conditions: Table 11; A-431 cells, 5,000 cells per well, free uptake, 2,000 nM oligonucleotide, approx. 48 hours; primer probe set RTS36584; Yap1 mRNA normalized to RIBOGREEN, percent of untreated control
row,Substance,YAP1 (% UTC)
1,958448 (antisense kG*k[5mC]*kG*dA*dA*dG*dG*d[5mC]*dG*dG*d[5mC]*dT*dG*k[5mC]*k[5mC]*k[5mC]) [Compound 958448],86
2,958588 (kG*kT*kG*dT*dA*d[5mC]*dT*dT*dA*dG*dG*dT*dG*kA*k[5mC]*kT; antisense) [Compound 958588],10
3,958593 (kG*kG*kT*d[5mC]*dA*dG*dT*dA*d[5mC]*dA*dG*dA*dG*kG*kG*k[5mC]; antisense) [Compound 958593],7
4,958633 (antisense kT*kG*kT*d[5mC]*dA*dT*d[5mC]*dA*dG*dG*dT*dT*dA*kA*kG*kT) [Compound 958633],76
5,958743 (antisense kG*kA*k[5mC]*dT*dA*dT*dA*dA*dA*dG*dG*dG*dT*kT*kT*kA) [Compound 958743],30
6,958698 (antisense k[5mC]*kT*kT*dA*dT*dT*dA*dG*d[5mC]*d[5mC]*d[5mC]*dT*d[5mC]*kA*kA*kA) [Compound 958698],30

# Same assay, conditions: Table 12; A-431 cells, 5,000 cells per well, free uptake, 2,000 nM modified oligonucleotide, approx. 48 hours; RTS36584; normalized to RIBOGREEN; Yap1 mRNA relative to untreated control cells
row,Substance,YAP1 (% UTC)
1,958689 (antisense k[5mC]*kA*kT*dT*dA*dA*dG*dG*dA*dG*dG*dT*dT*kA*kT*kG) [Compound 958689],87
2,958624 (antisense kG*kG*kG*dA*dT*dT*dG*dA*dT*dA*dT*dT*d[5mC]*k[5mC]*kG*k[5mC]) [Compound 958624],74
3,958814 (kG*kG*k[5mC]*dT*dA*dT*dG*d[5mC]*d[5mC]*dT*d[5mC]*dT*d[5mC]*kT*kT*kA; antisense) [Compound 958814],214
4,958734 (antisense kA*k[5mC]*kA*d[5mC]*dA*dT*dA*dG*dA*dG*d[5mC]*dT*dA*kA*kG*kG) [Compound 958734],7
5,958694 (antisense kA*kT*kT*dG*dG*dT*dG*dG*dT*dG*dT*d[5mC]*dT*k[5mC]*kA*k[5mC]) [Compound 958694],41
6,958559 (kA*kA*kT*dT*d[5mC]*dA*d[5mC]*dA*dA*d[5mC]*d[5mC]*dA*dA*k[5mC]*kT*kA; antisense) [Compound 958559],17
7,958664 (kA*k[5mC]*kG*dA*dA*d[5mC]*dT*dA*dA*dG*dG*dT*dG*kT*kA*k[5mC]; antisense) [Compound 958664],40

# Same assay, conditions: Table 13; A-431 cells, 5,000 cells per well, free uptake, 2,000 nM modified oligonucleotide, approx. 48 hours; RTS36584; normalized to RIBOGREEN; Yap1 mRNA relative to untreated control cells
row,Substance,YAP1 (% UTC)
1,958570 (kT*kG*kT*dA*dA*dT*dT*d[5mC]*dA*dT*dA*dT*dA*k[5mC]*k[5mC]*k[5mC]; antisense) [Compound 958570],5
2,958665 (k[5mC]*kT*kG*d[5mC]*dA*dT*dA*d[5mC]*d[5mC]*d[5mC]*dT*d[5mC]*d[5mC]*kA*kG*k[5mC]; antisense) [Compound 958665],84
3,958650 (kT*k[5mC]*kA*dA*dT*dT*dG*dA*dG*dT*d[5mC]*dT*dG*k[5mC]*kT*kA; antisense) [Compound 958650],3
4,958465 (antisense kG*kG*k[5mC]*dT*dT*d[5mC]*dA*dA*dG*dG*dT*dA*dG*kT*k[5mC]*kT) [Compound 958465],84
5,958475 (antisense k[5mC]*k[5mC]*kG*dG*dT*dG*d[5mC]*dA*dT*dG*dT*dG*dT*k[5mC]*kT*k[5mC]) [Compound 958475],37

# Same assay, conditions: Table 26; Yap1 mRNA by 3-10-3 cEt gapmers targeting SEQ ID NO.: 1, and 2; percent of untreated control
row,Substance,YAP1 (% UTC)
1,1076492 (kA*kA*kA*dA*dG*dA*dT*dA*d[5mC]*d[5mC]*d[5mC]*d[5mC]*d[5mC]*kA*kG*kT; antisense) [compound 1076492],47

# Same assay, conditions: Table 27; Yap1 mRNA by 3-10-3 cEt gapmers targeting SEQ ID NO.: 1, and 2; percent of untreated control
row,Substance,YAP1 (% UTC)
1,1075693 (k[5mC]*kA*kT*dT*dA*dA*dA*dA*dG*dT*dT*dG*dG*kG*kT*kT; antisense) [compound 1075693],36
2,1075277 (antisense kT*kT*kA*dT*dA*dA*dG*dA*dA*d[5mC]*dT*dG*dT*kG*kG*k[5mC]) [compound 1075277],13
3,1074573 (DNA kA*kT*kT*dA*dT*dG*dA*dA*d[5mC]*d[5mC]*dT*dA*d[5mC]*kT*k[5mC]*kA) [compound 1074573],14
4,1074701 (antisense kG*kT*kG*dT*dA*dA*dG*dA*d[5mC]*dA*dA*dG*dT*k[5mC]*kT*kT) [compound 1074701],17
5,1075373 (antisense kT*kA*kT*dA*dT*dA*dT*dA*dG*dA*d[5mC]*dT*dT*kG*kA*kG) [compound 1075373],13
6,1075565 (kT*kA*kT*dA*dT*dA*dA*d[5mC]*dA*dG*dG*d[5mC]*d[5mC]*kA*k[5mC]*k[5mC]; antisense) [compound 1075565],52

# Same assay, conditions: Table 28; Yap1 mRNA as percent of untreated control; 3-10-3 cEt gapmers targeting SEQ ID NO.: 1, and 2
row,Substance,YAP1 (% UTC)
1,1075182 (kG*kA*kT*dA*dT*dT*dA*dT*dA*dT*dT*dA*d[5mC]*kT*kA*k[5mC]; antisense) [compound 1075182],61
2,1076046 (k[5mC]*kT*kT*dA*dA*dA*dT*dG*dG*dT*dG*d[5mC]*dA*kA*kT*kA; antisense) [compound 1076046],28
3,1075150 (kA*kG*k[5mC]*dG*dG*dA*dA*dA*dA*dA*dA*d[5mC]*dA*k[5mC]*k[5mC]*kT; antisense) [compound 1075150],35
4,1075950 (antisense kT*kG*kA*d[5mC]*dA*dA*dT*dA*d[5mC]*d[5mC]*dT*dT*d[5mC]*k[5mC]*kT*kA) [compound 1075950],30

# Same assay, conditions: Table 29; Yap1 mRNA as percent of untreated control; 3-10-3 cEt gapmers targeting SEQ ID NO.: 1, and 2
row,Substance,YAP1 (% UTC)
1,1075087 (antisense kT*k[5mC]*kT*d[5mC]*dA*dA*dT*dA*dA*dG*dT*dT*dA*kT*kA*kG) [compound 1075087],39

# Same assay, conditions: Table 34; Yap1 mRNA as percent of untreated control; 3-10-3 cEt gapmers targeting SEQ ID NO: 1 and 2; single dose
row,Substance,YAP1 (% UTC)
1,1075444 (antisense kA*kT*kA*dA*dA*dT*d[5mC]*d[5mC]*dT*d[5mC]*dA*dT*dG*kT*kG*kG) [compound 1075444],112
2,1074612 (DNA kA*kT*kA*dG*d[5mC]*dT*dT*dA*dT*dA*dT*dT*dG*kA*kA*kG; further chemistry not given here) [compound 1074612],12

# Same assay, conditions: Table 35; Yap1 mRNA as percent of untreated control; 3-10-3 cEt gapmers targeting SEQ ID NO: 1 and 2; single dose
row,Substance,YAP1 (% UTC)
1,1076469 (kG*kT*kA*dA*dA*dA*dG*dG*dG*dA*dA*d[5mC]*dT*kA*kA*kG; antisense) [compound 1076469],69
2,1074773 (k[5mC]*kA*kG*dT*dT*dA*dA*dA*dA*dT*d[5mC]*dT*dT*kA*kT*k[5mC]; antisense) [compound 1074773],94
